Test results from PMC8206213, “An L-2-hydroxyglutarate biosensor based on specific transcriptional regulator LhgR” (Nature Communications, 2021).
Where “and” joins values, the source holds several entries; their conditions need not be identical. Equal values may be shown once.

Tests used:
[1] = Dose-response of purified LHGFR and its variants for L-2-HG in 50 mM Tris-HCl buffer (pH 7.4), Venus/mTFP emission ratio; format: binding
Method: Purified L-2-HG biosensors and different compounds were diluted by 50 mM Tris-HCl buffer (pH 7.4), mixed together in a black 96-well plate at a volume ratio of 3:1, and the fluorescence intensities were measured using an EnSight microplate reader (PerkinElmer, USA) with excitation at 430 nm, emission at 485 nm (mTFP) and 528 nm (Venus). The dose-response curves were fitted by OriginPro 2016 software (OriginLab) according to the following formula:1 R=Rmax+Rmin−Rmax/1+([L-2-HG]/Kd)^p where R, Rmin, and Rmax refer to the emission ratio of Venus to mTFP, ratio in the absence of L-2-HG, and ratio at saturation with L-2-HG, respectively. The [L-2-HG], Kd, and p refer to the L-2-HG concentration, apparent dissociation constant, and Hill slope, respectively. Emission spectra were recorded at 430 nm excitation, in steps of 2 nm. Excitation spectra were recorded using emission at 550 nm, excitation from 380 to 535 nm in steps of 2 nm.

LHGFR0N7C = assay: Influence of other compounds on the response of purified LHGFR0N7C to L-2-HG; format: binding, Pseudomonas putida W619
Summary of the method: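 Purified L-2-HG biosensors were mixed 3:1 with test compounds in 50 mM Tris-HCl pH 7.4, excited at 430 nm, and the 528 nm (Venus)/485 nm (mTFP) emission was read. Responses were fitted with a Hill model giving apparent Kd and Hill slope.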

For `O=C(O)CC[C@H](O)C(=O)O` [L-2-HG, L-2-Hydroxyglutarate], the “Emission ratio of 528/485” value ([1]; Supplementary Fig. 6c, L-2-HG concentration 2000) was 2.899 and 2.986 and 2.9894, the “Emission ratio of 528/485” value ([1]; Supplementary Fig. 6e, L-2-HG concentration 0.01) was 1.655 and 1.676 and 1.693 and the “Emission ratio of 528/485” value ([1]; Supplementary Fig. 6e, L-2-HG concentration 0.1) was 1.641 and 1.674 and 1.689. The “Emission ratio of 528/485” value ([1]; Supplementary Fig. 6e, L-2-HG concentration 0.2) was 1.675 and 1.688 and 1.698, the “Emission ratio of 528/485” value ([1]; Supplementary Fig. 6e, L-2-HG concentration 1) was 1.753 and 1.778 and 1.797 and the “Emission ratio of 528/485” value ([1]; Supplementary Fig. 6e, L-2-HG concentration 2) was 1.892 and 1.897 and 1.889. For the same compound, the “Emission ratio of 528/485” value ([1]; Supplementary Fig. 6e, L-2-HG concentration 10) was 2.254 and 2.242 and 2.288, the “Emission ratio of 528/485” value ([1]; Supplementary Fig. 6e, L-2-HG concentration 20) was 2.359 and 2.347 and 2.363 and the “Emission ratio of 528/485” value ([1]; Supplementary Fig. 6e, L-2-HG concentration 100) was 2.568 and 2.652 and 2.688. For the same compound, the “Emission ratio of 528/485” value ([1]; Supplementary Fig. 6e, L-2-HG concentration 200) was 2.563 and 2.676 and 2.688, the “Emission ratio of 528/485” value ([1]; Supplementary Fig. 6e, L-2-HG concentration 1000) was 2.635 and 2.6341 and 2.632 and the “Emission ratio of 528/485” value ([1]; Supplementary Fig. 6e, L-2-HG concentration 2000) was 2.667 and 2.655 and 2.697. For the same compound, the “Emission ratio of 528/485” value ([1]; Supplementary Fig. 6d, L-2-HG concentration 0.01) was 1.72 and 1.724 and 1.742, the “Emission ratio of 528/485” value ([1]; Supplementary Fig. 6d, L-2-HG concentration 0.1) was 1.742 and 1.747 and 1.746 and the “Emission ratio of 528/485” value ([1]; Supplementary Fig. 6d, L-2-HG concentration 1) was 1.865 and 1.88 and 1.882. For the same compound, the “Emission ratio of 528/485” value ([1]; Supplementary Fig. 6d, L-2-HG concentration 2) was 2.014 and 2.037 and 2.039, the “Emission ratio of 528/485” value ([1]; Supplementary Fig. 6d, L-2-HG concentration 10) was 2.446 and 2.449 and 2.469 and the “Emission ratio of 528/485” value ([1]; Supplementary Fig. 6d, L-2-HG concentration 20) was 2.546 and 2.554 and 2.592. For the same compound, the “Emission ratio of 528/485” value ([1]; Supplementary Fig. 6d, L-2-HG concentration 100) was 2.59 and 2.651 and 2.67, the “Emission ratio of 528/485” value ([1]; Supplementary Fig. 6d, L-2-HG concentration 1000) was 2.653 and 2.699 and 2.7087 and the “Emission ratio of 528/485” value ([1]; Supplementary Fig. 6d, L-2-HG concentration 2000) was 2.665 and 2.7183 and 2.7325. The “Emission ratio of 528/485” value (LHGFR0N7C; L-2-HG concentration 0.01, in the absence of 2-KG, Suppl. Fig. 9h) was 1.669 and 1.681 and 1.673, the “Emission ratio of 528/485” value (LHGFR0N7C; L-2-HG concentration 0.01, in the absence of D-2-HG, Suppl. Fig. 9f) was 1.668 and 1.665 and 1.6772 and the “Emission ratio of 528/485” value (LHGFR0N7C; L-2-HG concentration 0.01, in the presence of 2-KG, Suppl. Fig. 9h) was 1.723. For the same compound, the “Emission ratio of 528/485” value (LHGFR0N7C; L-2-HG concentration 0.01, in the presence of D-2-HG, Suppl. Fig. 9f) was 1.965 and 1.961 and 1.978, the “Emission ratio of 528/485” value (LHGFR0N7C; L-2-HG concentration 0.1, in the absence of D-2-HG, Suppl. Fig. 9f) was 1.677 and 1.673 and 1.693 and the “Emission ratio of 528/485” value (LHGFR0N7C; L-2-HG concentration 0.1, in the presence of D-2-HG, Suppl. Fig. 9f) was 1.971 and 1.964 and 1.956. The “Emission ratio of 528/485” value (LHGFR0N7C; L-2-HG concentration 0.2, in the absence of D-2-HG, Suppl. Fig. 9f) was 1.691 and 1.69 and 1.731, the “Emission ratio of 528/485” value (LHGFR0N7C; L-2-HG concentration 0.2, in the presence of D-2-HG, Suppl. Fig. 9f) was 1.971 and 1.94 and 1.9794 and the “Emission ratio of 528/485” value (LHGFR0N7C; L-2-HG concentration 1, in the absence of D-2-HG, Suppl. Fig. 9f) was 1.801 and 1.777 and 1.826. The “Emission ratio of 528/485” value (LHGFR0N7C; L-2-HG concentration 1, in the presence of D-2-HG, Suppl. Fig. 9f) was 2.027 and 1.982 and 2.045, the “Emission ratio of 528/485” value (LHGFR0N7C; L-2-HG concentration 2, in the absence of D-2-HG, Suppl. Fig. 9f) was 1.915 and 1.897 and 1.932 and the “Emission ratio of 528/485” value (LHGFR0N7C; L-2-HG concentration 2, in the presence of D-2-HG, Suppl. Fig. 9f) was 2.096 and 2.057 and 2.13. For the same compound, the “Emission ratio of 528/485” value (LHGFR0N7C; L-2-HG concentration 10, in the absence of D-2-HG, Suppl. Fig. 9f) was 2.29 and 2.251 and 2.3138, the “Emission ratio of 528/485” value (LHGFR0N7C; L-2-HG concentration 10, in the presence of D-2-HG, Suppl. Fig. 9f) was 2.341 and 2.308 and 2.373 and the “Emission ratio of 528/485” value (LHGFR0N7C; L-2-HG concentration 20, in the absence of 2-KG, Suppl. Fig. 9h) was 2.356 (2×) and 2.408. The “Emission ratio of 528/485” value (LHGFR0N7C; L-2-HG concentration 20, in the absence of D-2-HG, Suppl. Fig. 9f) was 2.392 and 2.365 and 2.398, the “Emission ratio of 528/485” value (LHGFR0N7C; L-2-HG concentration 20, in the presence of 2-KG, Suppl. Fig. 9h) was 2.43 and 2.42 and 2.428 and the “Emission ratio of 528/485” value (LHGFR0N7C; L-2-HG concentration 20, in the presence of D-2-HG, Suppl. Fig. 9f) was 2.458 and 2.457 and 2.465. The “Emission ratio of 528/485” value (LHGFR0N7C; L-2-HG concentration 100, in the absence of 2-KG, Suppl. Fig. 9h) was 2.538 and 2.5321 and 2.598, the “Emission ratio of 528/485” value (LHGFR0N7C; L-2-HG concentration 100, in the absence of D-2-HG, Suppl. Fig. 9f) was 2.581 and 2.561 and 2.566 and the “Emission ratio of 528/485” value (LHGFR0N7C; L-2-HG concentration 100, in the presence of 2-KG, Suppl. Fig. 9h) was 2.5747 and 2.606 and 2.576. For the same compound, the “Emission ratio of 528/485” value (LHGFR0N7C; L-2-HG concentration 100, in the presence of D-2-HG, Suppl. Fig. 9f) was 2.5851 and 2.631 and 2.587, the “Emission ratio of 528/485” value (LHGFR0N7C; L-2-HG concentration 200, in the absence of 2-KG, Suppl. Fig. 9h) was 2.539 and 2.563 and 2.555 and the “Emission ratio of 528/485” value (LHGFR0N7C; L-2-HG concentration 200, in the absence of D-2-HG, Suppl. Fig. 9f) was 2.5575 and 2.555 and 2.59. For the same compound, the “Emission ratio of 528/485” value (LHGFR0N7C; L-2-HG concentration 200, in the presence of 2-KG, Suppl. Fig. 9h) was 2.617 and 2.618 and 2.612, the “Emission ratio of 528/485” value (LHGFR0N7C; L-2-HG concentration 200, in the presence of D-2-HG, Suppl. Fig. 9f) was 2.597 and 2.613 and 2.641 and the “Emission ratio of 528/485” value (LHGFR0N7C; L-2-HG concentration 1000, in the absence of 2-KG, Suppl. Fig. 9h) was 2.624 and 2.621 and 2.641. The “Emission ratio of 528/485” value (LHGFR0N7C; L-2-HG concentration 1000, in the absence of D-2-HG, Suppl. Fig. 9f) was 2.621 and 2.615 and 2.63, the “Emission ratio of 528/485” value (LHGFR0N7C; L-2-HG concentration 1000, in the presence of 2-KG, Suppl. Fig. 9h) was 2.674 and 2.614 and 2.6567 and the “Emission ratio of 528/485” value (LHGFR0N7C; L-2-HG concentration 1000, in the presence of D-2-HG, Suppl. Fig. 9f) was 2.625 and 2.6112 and 2.6354. For the same compound, the “Emission ratio of 528/485” value (LHGFR0N7C; L-2-HG concentration 2000, in the absence of 2-KG, Suppl. Fig. 9h) was 2.674 and 2.655 and 2.638, the “Emission ratio of 528/485” value (LHGFR0N7C; L-2-HG concentration 2000, in the absence of D-2-HG, Suppl. Fig. 9f) was 2.642 and 2.658 and 2.618 and the “Emission ratio of 528/485” value (LHGFR0N7C; L-2-HG concentration 2000, in the presence of 2-KG, Suppl. Fig. 9h) was 2.683 and 2.662 and 2.678. For the same compound, the “Emission ratio of 528/485” value (LHGFR0N7C; L-2-HG concentration 2000, in the presence of D-2-HG, Suppl. Fig. 9f) was 2.621 and 2.633 and 2.649 and the Emission ratio (LHGFR0N7C; Suppl. Fig. 9b, L-2-HG alone or with the compound, three replicates) was 2.613 and 2.611 and 2.604.
